# Laboratory results published in US20120040930A1, “TETRACYCLIC TERPENE SERIES COMPOUNDS, METHODS FOR PREPARING SAME, USES THEREOF AS MEDICINES AND PHARMACEUTICAL COMPOUNDS CONTAINING SAME” (priority 2005, published 2012).
# How the values were obtained:
# [1] = target: T1, acetylcholinesterase (AChE) isolated from Electrophorus electricus (Electrophorus electricus, UniProt O42275); assay: biochemical; conditions: AChE isolated from Electrophorus electricus; read-out: AChE IC50
# T1 construct: AChE isolated from Electrophorus electricus; from tissue
# T1 sequence (O42275 24-633): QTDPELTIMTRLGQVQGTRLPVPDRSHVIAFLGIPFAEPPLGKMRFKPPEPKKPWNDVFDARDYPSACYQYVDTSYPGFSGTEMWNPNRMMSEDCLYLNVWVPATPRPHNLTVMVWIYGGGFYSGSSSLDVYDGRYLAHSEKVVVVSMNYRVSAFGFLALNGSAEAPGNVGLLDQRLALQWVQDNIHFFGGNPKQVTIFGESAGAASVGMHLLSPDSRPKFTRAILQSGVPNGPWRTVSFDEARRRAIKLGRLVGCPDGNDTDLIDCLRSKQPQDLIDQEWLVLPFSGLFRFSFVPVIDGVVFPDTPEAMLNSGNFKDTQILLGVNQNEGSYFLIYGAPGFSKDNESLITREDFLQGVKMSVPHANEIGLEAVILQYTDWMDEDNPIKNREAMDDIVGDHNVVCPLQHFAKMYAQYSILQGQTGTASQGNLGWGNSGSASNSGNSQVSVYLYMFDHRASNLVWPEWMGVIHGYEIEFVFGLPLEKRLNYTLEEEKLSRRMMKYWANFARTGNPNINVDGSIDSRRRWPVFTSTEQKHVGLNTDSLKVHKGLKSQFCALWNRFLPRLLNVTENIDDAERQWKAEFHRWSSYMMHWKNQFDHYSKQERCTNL
# [2] = target: T2, human serum butyrylcholinesterase (BChE) (Homo sapiens, UniProt P06276); assay: biochemical; conditions: human serum BChE; read-out: BChE
# T2 construct: BChE isolated from human serum; from tissue; host or cells: human serum
# T2 sequence (P06276 29-602): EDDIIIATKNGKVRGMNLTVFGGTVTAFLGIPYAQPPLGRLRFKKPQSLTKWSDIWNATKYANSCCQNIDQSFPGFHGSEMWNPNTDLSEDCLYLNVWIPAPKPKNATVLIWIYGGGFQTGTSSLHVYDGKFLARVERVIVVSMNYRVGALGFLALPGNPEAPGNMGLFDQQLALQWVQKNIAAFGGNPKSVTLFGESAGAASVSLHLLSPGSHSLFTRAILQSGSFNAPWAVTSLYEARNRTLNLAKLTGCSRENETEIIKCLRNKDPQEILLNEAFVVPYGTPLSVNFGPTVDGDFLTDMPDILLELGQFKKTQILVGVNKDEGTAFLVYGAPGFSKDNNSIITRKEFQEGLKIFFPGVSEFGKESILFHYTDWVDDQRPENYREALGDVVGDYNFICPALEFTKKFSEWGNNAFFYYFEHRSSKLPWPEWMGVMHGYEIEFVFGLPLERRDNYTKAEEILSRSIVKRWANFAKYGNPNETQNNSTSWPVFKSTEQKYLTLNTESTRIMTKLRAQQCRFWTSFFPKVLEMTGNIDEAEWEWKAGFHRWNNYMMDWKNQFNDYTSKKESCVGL
# [3] = test system: skeletal neuromuscular junction; assay: Cellular electrophysiology on isolated mouse neuromuscular preparations
# Procedure: This extension of synaptic potentials is observed when the mouse neuromuscular preparations are placed in a normal survival medium (Krebs-Ringer) containing (in mM) NaCl, 151; KCl, 5; MgCl2, 1; CaCl2, 2; glucose, 11; and HEPES-NaOH, 5 (pH 7.4); and when the survival medium contains low concentrations of CaCl2 (0.4-1 mM) and high concentrations of MgCl2 (4-8 mM) to reduce the release of acetylcholine. The extension of synaptic potentials at the neuromuscular junction reflects the mean lifespan of synaptic channels opened by acetylcholine during their interactions with skeletal muscle nicotinic receptors. Inhibition of acetylcholinesterase increases acetylcholine concentration at the synaptic cleft, which allows acetylcholine to bind repeatedly with these receptors, thus extending the duration of synaptic responses.
# Thus, the inhibition of acetylcholinesterase by this compound is not accompanied by depolarization of the muscle membrane.
# From a pharmacological point of view, the inventors first tested the ability of compound 8e to modify nerve axon conduction.
# [4] = target: T3, muscle nicotinic acetylcholine receptors (Mus musculus, UniProt P02716+P04756+P09690+P20782); assay: Electrophysiology: interaction with muscle nicotinic acetylcholine receptors, mouse neuromuscular junction
# T3 construct: isolated living vertebrate (frog and mouse) neuromuscular preparations; from tissue; host or cells: isolated mouse neuromuscular preparation
# T3 sequence (P04756 21-457): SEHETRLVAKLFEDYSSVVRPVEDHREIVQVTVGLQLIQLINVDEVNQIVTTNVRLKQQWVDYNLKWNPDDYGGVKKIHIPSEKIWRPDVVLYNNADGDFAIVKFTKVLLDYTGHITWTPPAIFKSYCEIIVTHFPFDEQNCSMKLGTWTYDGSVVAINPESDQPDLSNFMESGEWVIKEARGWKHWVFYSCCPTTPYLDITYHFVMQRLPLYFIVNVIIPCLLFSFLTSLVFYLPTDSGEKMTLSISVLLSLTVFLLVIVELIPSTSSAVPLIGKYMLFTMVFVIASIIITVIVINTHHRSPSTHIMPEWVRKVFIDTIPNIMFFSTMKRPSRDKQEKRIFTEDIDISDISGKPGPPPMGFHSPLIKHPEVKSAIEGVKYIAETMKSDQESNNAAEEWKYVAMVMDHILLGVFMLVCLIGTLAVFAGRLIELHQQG
# T3 sequence (P09690 24-501): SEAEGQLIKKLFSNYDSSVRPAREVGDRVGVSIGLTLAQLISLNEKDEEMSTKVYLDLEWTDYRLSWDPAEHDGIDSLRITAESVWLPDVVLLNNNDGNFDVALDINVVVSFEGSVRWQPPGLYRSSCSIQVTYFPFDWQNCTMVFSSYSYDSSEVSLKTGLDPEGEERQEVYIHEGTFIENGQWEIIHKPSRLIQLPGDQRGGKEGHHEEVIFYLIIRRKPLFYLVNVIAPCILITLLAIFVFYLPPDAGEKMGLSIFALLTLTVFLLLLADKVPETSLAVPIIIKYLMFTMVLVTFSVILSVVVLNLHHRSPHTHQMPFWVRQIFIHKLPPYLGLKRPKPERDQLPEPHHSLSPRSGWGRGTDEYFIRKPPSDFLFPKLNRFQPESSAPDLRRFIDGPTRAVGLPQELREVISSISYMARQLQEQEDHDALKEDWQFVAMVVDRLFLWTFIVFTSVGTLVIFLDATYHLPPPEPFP
# T3 sequence (P02716 25-520): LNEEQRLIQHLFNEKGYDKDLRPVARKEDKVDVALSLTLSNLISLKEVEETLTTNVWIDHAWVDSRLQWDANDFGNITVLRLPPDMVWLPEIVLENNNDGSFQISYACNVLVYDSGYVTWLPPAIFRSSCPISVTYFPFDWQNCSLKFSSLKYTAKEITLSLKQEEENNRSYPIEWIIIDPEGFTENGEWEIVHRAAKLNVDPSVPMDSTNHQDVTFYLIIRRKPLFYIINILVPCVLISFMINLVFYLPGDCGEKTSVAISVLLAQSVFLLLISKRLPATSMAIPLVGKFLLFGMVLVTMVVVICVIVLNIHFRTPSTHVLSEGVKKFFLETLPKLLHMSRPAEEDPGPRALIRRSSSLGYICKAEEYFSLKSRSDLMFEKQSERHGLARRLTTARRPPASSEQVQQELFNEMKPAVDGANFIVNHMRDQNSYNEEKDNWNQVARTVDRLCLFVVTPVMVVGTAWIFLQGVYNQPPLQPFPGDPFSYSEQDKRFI
# T3 sequence (P20782 21-493): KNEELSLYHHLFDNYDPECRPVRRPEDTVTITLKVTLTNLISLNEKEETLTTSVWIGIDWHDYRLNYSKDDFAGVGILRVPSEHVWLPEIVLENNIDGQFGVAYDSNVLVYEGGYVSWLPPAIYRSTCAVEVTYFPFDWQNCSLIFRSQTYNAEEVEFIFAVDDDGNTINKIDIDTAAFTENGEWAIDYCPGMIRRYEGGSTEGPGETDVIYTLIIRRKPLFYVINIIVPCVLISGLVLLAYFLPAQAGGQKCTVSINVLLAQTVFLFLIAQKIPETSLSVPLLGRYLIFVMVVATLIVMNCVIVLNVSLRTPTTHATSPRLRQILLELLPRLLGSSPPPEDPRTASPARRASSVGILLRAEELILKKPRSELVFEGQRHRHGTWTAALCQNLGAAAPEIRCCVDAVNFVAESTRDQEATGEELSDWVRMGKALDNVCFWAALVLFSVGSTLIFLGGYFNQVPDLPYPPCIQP
# From the text: (§1) Secondly, the inventors determined, using electrophysiology, the ability of compound 8e to interact with muscle nicotinic acetylcholine receptors.
# [5] = test system: muscle nicotinic acetylcholine receptors; assay: Electrophysiology: interaction with muscle nicotinic acetylcholine receptors, frog neuromuscular junction; conditions: 160 μM
# From the text: as §1
smiles,measurement,setting,value
"CC[C@H](C)C1=N[C@H]2CC=C3C[C@H]4C(=O)C[C@]5(C)[C@@H]([C@H](C)N(C)C)[C@H](O)C[C@@]5(C)[C@@H]4CC[C@H]3[C@]2(C)CO1 [Compound 8e, (20S)-10(9->1)abeo-4,14α-dimethyl-20-dimethylamino(2′-(S-1-methylpropyl)-4′,4′-dihydro[3′,1′]oxazin)-5α,9-pregn-1(10)-en-16α-ol-11-one]",IC50,[1],13 nM
same,IC50,[2],> 1000 nM
same,nerve axon conduction,"[3]; 1 μM to 300 μM, mouse neuromuscular preparations",does not apparently modify nerve conduction
same,synaptic response half-times (motor end-plate potentials and miniature end-plate potentials),"[3]; 1-25 μM, mouse neuromuscular preparations, normal Krebs-Ringer or low CaCl2/high MgCl2 medium",produces an extension of synaptic response half-times
same,effect on muscle fiber resting potentials,[3]; concentrations that extend synaptic potentials and higher (160-200 μM),does not have a significant effect
same,motor end-plate miniature potentials,"[4]; 80 μM, species not given",causes a decrease in amplitude and blocking
same,block of motor end-plate potentials evoked by motor nerve stimulation,"[4]; 160 μM, mouse neuromuscular junction",80%
same,block of motor end-plate potentials evoked by motor nerve stimulation,[5],80%
